In brackets after ≈: the same amount, converted by molar mass.
Settings: buffer; pH 7.4; 200.0 µM

Row | Compound | solubility kinetic
1 | N#Cc1c(C(F)(F)F)cc(-c2cccs2)nc1SCC(=O)O | 46.1 µg/mL (≈ 134 µM)
2 | O=C(Nc1ccc2c(c1)OCO2)C1CC(=O)N(c2ccc3c(c2)OCCO3)C1 (stereo unspecified) | 3.6 µg/mL (≈ 9.41 µM)
3 | CCn1c(Oc2ccccc2)nc2c1c(=O)n(C)c(=O)n2C | 37.8 µg/mL (≈ 126 µM)
4 | CC1(C)CC2(C)OC(=N)C1(C#N)C2(C#N)C#N (stereo unspecified) | 34 µg/mL (≈ 149 µM)
5 | CCCc1nc2oc3ccccc3c(=O)c2c(=O)n1CCCOC | > 49.3 µg/mL
6 | COc1ccc(/C=C/C(=O)O)cc1S(=O)(=O)NCC1CCCO1 (stereo unspecified) | 41.3 µg/mL (≈ 121 µM)
7 | Cl.Nc1ncnc2nc[nH]c12 | > 25.7 µg/mL
8 | CCc1cc2c(NC3CCCC3)ncnc2s1.Cl | 30.8 µg/mL
9 | COC(=O)c1cc(C(=O)N2CCOCC2)cc([N+](=O)[O-])c1 | > 44.1 µg/mL
10 | Cc1cc2c(NC3CCCCC3)ncnc2s1.Cl | 15 µg/mL
11 | CC(C)=CCN1CCN(Cc2ccc(C)s2)CC1CCO (stereo unspecified) | 36.4 µg/mL (≈ 118 µM)
12 | O=C(COC(=O)c1cc(Cl)nc(Cl)c1)NCCc1ccc(F)cc1 | > 55.7 µg/mL
13 | CCNc1nc2cccnc2s1 | 24.7 µg/mL (≈ 138 µM)
14 | CCc1noc(C)c1C(=O)N(CCOC)c1c(N)n(CC(C)C)c(=O)[nH]c1=O | 55.6 µg/mL (≈ 141 µM)
15 | CC1CCN(CC(=O)NC2CCCCC2)CC1.Cl | 37.4 µg/mL
16 | Cc1ccc(Nc2ccc(C(=O)O)cc2[N+](=O)[O-])cc1 | > 40.8 µg/mL
17 | COC(=O)c1ccc(CN2CCCCC2)cc1 | 28.9 µg/mL (≈ 124 µM)
18 | O=C(NC(=S)NCc1ccc(Cl)cc1Cl)c1ccco1 | 1.4 µg/mL (≈ 4.25 µM)
19 | CCc1ccc(OCC(=O)Nc2ccncc2)cc1 | > 38.4 µg/mL
20 | Cc1ccc(CNc2ncnc3cc(Cl)ccc23)cc1 | 5 µg/mL (≈ 17.6 µM)
21 | NCCCN1CCN(c2ccccc2)CC1 | 26.3 µg/mL (≈ 120 µM)

Row | Compound | solubility kinetic
22 | Cn1c(SCc2ccccc2)nc(N)c(N=O)c1=O | 13.6 µg/mL (≈ 49.2 µM)
23 | COc1ccccc1N1C(=S)NC2CS(=O)(=O)CC21 (stereo unspecified) | > 44.8 µg/mL
24 | O=C(CN1C(=O)C2CC=CCC2C1=O)Nc1nc(-c2ccc(F)c(F)c2)cs1 (stereo unspecified) | 4.8 µg/mL (≈ 11.9 µM)
25 | CN1CCN(c2ccc(CNS(=O)(=O)Cc3ccc(Cl)cc3)cc2)CC1 | 2.8 µg/mL (≈ 7.11 µM)
26 | CCOc1ccc(CSC(=N)N)cc1Cl.Cl | > 42.2 µg/mL
27 | COc1ccc(C)cc1NC(=O)C1CCN(S(C)(=O)=O)CC1 | > 49 µg/mL
28 | O=C(Cc1cccc2ccccc12)NCCc1ccccc1 | 7.1 µg/mL (≈ 24.5 µM)
29 | CCc1cc2cccc(C)c2nc1SCC(=O)NC1CCCC1 | < 0.4 µg/mL
30 | Cc1noc(C)c1C(=O)N1CCC(C(=O)c2ccc(F)cc2F)CC1 | > 52.3 µg/mL
31 | Cc1cc(C)c2c(CC(=O)N3CCCC3)coc2c1 | > 38.6 µg/mL
32 | CC(=O)c1c(C)n(-c2ccc(C)cc2)c2ccc(O)cc12 | < 0.6 µg/mL
33 | O=C(Nc1ccc(S(=O)(=O)N2CCCCC2)cc1)c1ccco1 | 46.2 µg/mL (≈ 138 µM)
34 | O=C(O)CC1(CC(=O)Nc2ccccc2N2CCOCC2)CCCC1 | > 52 µg/mL
35 | O=C(CN1C(=O)NC2(CCCCC2)C1=O)Nc1ccc(Cl)cc1 | 11.3 µg/mL (≈ 33.7 µM)
36 | Cc1nonc1C(=O)N1CCCC(Nc2ccc(C(C)C)cc2)C1 (stereo unspecified) | 32.8 µg/mL (≈ 99.9 µM)
37 | Cn1c(Cl)c(/C=N/OC(=O)C2CC2)c2ccccc21 | 2.7 µg/mL (≈ 9.76 µM)
38 | Cn1cccc1/C=N/NC(=O)CSc1nc2ccccc2[nH]1 | > 47 µg/mL
39 | Cc1cccc(NC(=S)N(C)C)c1C | > 31.2 µg/mL
40 | CCN(Cc1ccccc1)C(=O)c1cc2c(OC)c(OC)c(OC)cc2[nH]1 | 31.8 µg/mL (≈ 86.3 µM)
41 | O=C(CN1CCN(Cc2ccccc2)CC1)NCc1ccc(Cl)cc1 | > 53.7 µg/mL
42 | CCCn1ccc(O)c(Cc2ccc(Cl)cc2)c1=O | 7.3 µg/mL (≈ 26.3 µM)

Row | Compound | solubility kinetic
43 | O=C(Nc1nc2ccccc2[nH]1)c1cc2ccccc2o1 | 2.1 µg/mL (≈ 7.57 µM)
44 | Cc1cccc(C)c1NC(=O)c1ccc(OCc2c(C)noc2C)cc1 | 8.7 µg/mL (≈ 24.8 µM)
45 | Cc1cccc(C(=O)NCC(=O)N2CCCC2)c1 | > 36.9 µg/mL
46 | Cc1occc1C(=O)Nc1ccccc1C#N | > 33.9 µg/mL
47 | Cn1ccnc1SCC(=O)Nc1cccc([N+](=O)[O-])c1 | 42.4 µg/mL (≈ 145 µM)
48 | Cc1cc(NC(=O)c2ccc(-c3ccccc3[N+](=O)[O-])o2)no1 | 6.7 µg/mL (≈ 21.4 µM)
49 | Cc1ccc(Cl)c(NC(=O)CN2CCN(C=O)CC2)c1 | 36.6 µg/mL (≈ 124 µM)
50 | COC(=O)c1ccc(CNC(=O)C23CC4CC(CC(C4)C2)C3)cc1 | 6.2 µg/mL (≈ 18.9 µM)
51 | COc1ccc(Nc2ncnc3ccc(Br)cc23)c(OC)c1 | 7.3 µg/mL (≈ 20.3 µM)
52 | Cc1ccc(N2CC(C(=O)NCCN3CCOCC3)CC2=O)cc1C (stereo unspecified) | > 51.8 µg/mL
53 | CCOc1ccc(Cl)cc1S(=O)(=O)NC1CCCC1 | 38.8 µg/mL (≈ 128 µM)
54 | O=C1Nc2ccc(Br)cc2C1(O)c1ccccc1 (stereo unspecified) | > 45.6 µg/mL
55 | Cc1cc(CNC(=O)Cc2ccccc2)c2ccccc2n1 | > 43.6 µg/mL
56 | C=CCn1cc(C=C2C(=O)NC(=O)NC2=O)c2ccccc21 | 3.6 µg/mL (≈ 12.2 µM)
57 | CSc1ncccc1C(=O)Nc1ccc2c(c1)OCO2 | 30.8 µg/mL (≈ 107 µM)
58 | CCc1noc(C)c1C(=O)Nc1ccc(C#N)cc1 | > 38.3 µg/mL
59 | Cc1cc(C(=O)OCC(=O)NC2CC2)ccc1[N+](=O)[O-] | 15.5 µg/mL (≈ 55.7 µM)
60 | N#CCCN(Cc1ccccc1)C(=O)Nc1ccc2c(c1)CCO2 | 21.7 µg/mL (≈ 67.5 µM)
61 | Cc1cccn2cc(-c3cc4ccccc4oc3=O)nc12 | 0.6 µg/mL (≈ 2.17 µM)

From PubChem BioAssay AID1996
